Data published in patent US11261186B2, “Biaryl derivative as GPR120 agonist” (LG CHEM, LTD., priority 2014, dated 2022).

Biological target: T1, hGPR120 (Homo sapiens, UniProt Q5NUL3)
T1 construct: expressed in transfected cells; host or cells: CHO-K1
T1 sequence (Q5NUL3 1-361): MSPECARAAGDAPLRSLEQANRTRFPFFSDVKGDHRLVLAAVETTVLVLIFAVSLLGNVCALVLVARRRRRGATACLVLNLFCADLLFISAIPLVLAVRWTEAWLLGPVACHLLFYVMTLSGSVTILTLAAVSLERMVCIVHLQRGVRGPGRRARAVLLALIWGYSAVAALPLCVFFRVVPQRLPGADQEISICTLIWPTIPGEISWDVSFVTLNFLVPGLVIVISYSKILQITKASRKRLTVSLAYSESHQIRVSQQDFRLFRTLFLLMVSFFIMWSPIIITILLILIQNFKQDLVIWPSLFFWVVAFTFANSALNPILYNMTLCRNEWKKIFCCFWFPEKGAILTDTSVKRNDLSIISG
Assay: Measurement of Activity of GPR120 Agonist (Cell-Based Assay), Calcium 5 dye fluorescence
Conditions: CHO-K1 cells expressing Ga16 and hGPR120
Outline: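 Gα16/hGPR120 CHO-K1; 18 h plating, 37 °C, 5% CO2; Calcium 5 dye load 1 h; agonist serial dilution, 0.5% DMSO final; fluor Ex485/Em525; response as % of 1% DMSO vehicle.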

| EC50 | Structure (SMILES) |
| --- | --- |
| < 200 nM | O=C(O)CCCOc1c(F)cc(-c2cccc3c2OC(F)(F)O3)cc1F [Example 290, 4-[4-(2,2-difluoro-benzo[1,3]dioxol-4-yl)-2,6-difluoro-phenoxy]-butyric acid] |
| 200 to 2000 nM | O=C(O)C1CC1COc1c(F)cc(-c2nccc(OCC3CC3)n2)cc1F (stereo not shown) [Example 545, 2-[4-(4-cyclopropylmethoxy-pyrimidin-2-yl)-2,6-difluoro-phenoxymethyl]-cyclopropanecarboxylic acid] |
| 200 to 2000 nM | CCCOc1cccc(-c2cc(F)c(N3CCC(CC(=O)O)CC3)c(F)c2)c1OCCC [Example 458, 2-[1-[4-(2,3-dipropoxyphenyl)-2,6-difluoro-phenyl]-4-piperidyl]acetic acid] |
| < 200 nM | O=C(O)CCCOc1c(F)cc(-c2cccc(OCC3CC3)c2)cc1F [Example 20, 4-(3′-cyclopropylmethoxy-3,5-difluoro-biphenyl-4-yloxy)-butyric acid] |
| < 200 nM | CC(C)Oc1cncc(-c2cc(F)c(N3CCC(CC(=O)O)C3)c(F)c2)n1 (stereo not shown) [Example 586, {1-[2,6-difluoro-4-(6-isopropoxy-pyrazin-2-yl)-phenyl]-pyrrolidin-3-yl}-acetic acid] |
| < 200 nM | O=C(O)CCCCNc1c(F)cc(-c2cccc(OCC3CC3)n2)cc1F [Example 98, 5-[4-[6-(cyclopropylmethoxy)-2-pyridyl]-2,6-difluoro-anilino]pentanoic acid] |
| 200 to 2000 nM | CN(CCCC(=O)O)c1c(F)cc(-c2cccc(N3CCCC3)n2)cc1F [Example 467, 4-[2,6-difluoro-N-methyl-4-(6-pyrrolidin-1-yl-2-pyridyl)anilino]butanoic acid] |
| 2000 to 20000 nM | Cc1nc(COCC2CC2)c(-c2cc(F)c(OCCCC(=O)O)c(F)c2)s1 [Example 568, 4-[4-(4-cyclopropylmethoxymethyl-2-methyl-thiazol-5-yl)-2,6-difluoro-phenoxy]-butanoic acid] |
| 200 to 2000 nM | O=C(O)CC1CCN(c2c(F)cc(-c3cccc(OCC4CC4)c3)cc2F)CC1 [Example 301, 2-[1-[4-[3-(cyclopropylmethoxy)phenyl]-2,6-difluoro-phenyl]-4-piperidyl]acetic acid] |
| < 200 nM | O=C(O)CCCOc1ccc(-c2cccnc2SC2CCC2)cc1F [Example 235, 4-[4-(2-cyclobutylsulfanyl-pyridin-3-yl)-2-fluoro-phenoxy]-butyric acid] |
| 200 to 2000 nM | O=C(O)CC1CCN(c2c(F)cc(-c3nccc(Oc4ccc(Cl)cc4)n3)cc2F)C1 (stereo not shown) [Example 509, 2-[1-[4-[4-(4-chlorophenoxy)pyrimidin-2-yl]-2,6-difluoro-phenyl]-pyrrolidin-3-yl]acetic acid] |
| < 200 nM | O=C(O)CCCSc1c(F)cc(-c2cccc3c2OC(F)(F)O3)cc1F [Example 153, 4-[4-(2,2-difluoro-benzo[1,3]dioxol-4-yl)-2,6-difluoro-phenylsulfanyl]-butyric acid] |
| 2000 to 20000 nM | O=C(O)CCc1ccc2cc(-c3ccccc3Oc3ccccc3F)ccc2c1 [Example 151, 3-{6-[2-(2-fluoro-phenoxy)-phenyl]-naphthalen-2-yl}-propanoic acid] |
| < 200 nM | O=C(O)CCCOc1ccc(-c2cccnc2SC2CCCC2)cc1F [Example 236, 4-[4-(2-cyclopentylsulfanyl-pyridin-3-yl)-2-fluoro-phenoxy]-butyric acid] |
| 200 to 2000 nM | CCN(CC)c1cncc(-c2cc(F)c(N3CCC(CC(=O)O)C3)c(F)c2)n1 (stereo not shown) [Example 506, 2-{1-[2,6-difluoro-4-(6-diethylamino-pyrazin-2-yl)phenyl]pyrrolidin-3-yl}acetic acid] |
| < 200 nM | CCCOc1nc(-c2cc(F)c(N3CCC(CC(=O)O)CC3)c(F)c2)ncc1F [Example 598, {1-[2,6-difluoro-4-(5-fluoro-4-propoxy-pyrimidin-2-yl)-phenyl]-piperidin-4-yl}-acetic acid] |
| < 200 nM | O=C(O)CCC1CCc2cc(-c3cccnc3OCC3CC3)ccc2S1 (stereo not shown) [Example 279, 3-[6-(2-cyclopropylmethoxy-pyridin-3-yl)-thiochroman-2-yl]-propionic acid] |
| 200 to 2000 nM | CCN(CCCC(=O)O)c1c(F)cc(-c2cccnc2OCC2CCC2)cc1F [Example 225, 4-{[4-(2-cyclobutylmethoxy-pyridin-3-yl)-2,6-difluoro-phenyl]-ethyl-amino}-butyric acid] |
| 200 to 2000 nM | Fc1cc(-c2cccnc2SC2CCC2)cc(F)c1OCCCc1nnn[nH]1 [Example 25, 2-cyclobutylsulfanyl-3-{3,5-difluoro-4-[3-(1H-tetrazol-5-yl)propoxy]phenyl}pyridin] |
| 200 to 2000 nM | O=C(O)CC1CCN(c2c(F)cc(-c3cccc(C4CCCC4)n3)cc2F)CC1 [Example 317, 2-[1-[4-(6-cyclopentyl-2-pyridyl)-2,6-difluoro-phenyl]-4-piperidyl]acetic acid] |
| < 200 nM | Oc1cc(COc2c(F)cc(-c3cccc(OCC4CC4)n3)cc2F)on1 [Example 72, 5-[[4-[6-(cyclopropylmethoxy)-2-pyridyl]-2,6-difluoro-phenoxy]methyl]isoxazol-3-ol] |
| < 200 nM | CN(CCCC(=O)O)c1c(F)cc(-c2cccnc2OCC2CCC2)cc1F [Example 218, 4-{[4-(2-cyclobutylmethoxy-pyridin-3-yl)-2,6-difluoro-phenyl]-methyl-amino}-butyric acid] |
| < 200 nM | O=C(O)CCCC1(c2c(F)cc(-c3cccc(OCC4CC4)n3)cc2F)CC1 [Example 170, 4-{1-[4-(6-cyclopropylmethoxy-pyridin-2-yl)-2,6-difluoro-phenyl]-cyclopropyl}-butyric acid] |
| < 200 nM | CC(C)Oc1cccc(-c2cc(F)c(OCCCC(=O)O)c(F)c2)c1 [Example 18, 4-(3,5-difluoro-3′-isopropoxy-biphenyl-4-yloxy)-butyric acid] |
| < 200 nM | O=C(O)CCCC(F)(F)c1ccc(-c2cccnc2SC2CCC2)cc1 [Example 178, 5-[4-(2-cyclobutylsulfanyl-pyridin-3-yl)-phenyl]-5,5-difluoro-pentanoic acid] |
| < 200 nM | CC(C)Oc1ccnc(-c2cc(F)c(N3CCC(CC(=O)O)CC3)c(F)c2)n1 [Example 346, 2-[1-[2,6-difluoro-4-(4-isopropoxypyrimidin-2-yl)phenyl]-4-piperidyl]acetic acid] |

| Structure (SMILES) | EC50 |
| --- | --- |
| O=C(O)CCCOc1ccc(-c2cccc(OC3CCC3)n2)cc1F [Example 538, 4-[4-(6-cyclobutoxy-pyridin-2-yl)-2-fluoro-phenoxy]-butyric acid] | < 200 nM |
| O=C(O)CC1CCN(c2c(F)cc(-c3cccc(COC4CCC4)n3)cc2F)CC1 [Example 313, 2-[1-[4-[6-(cyclobutoxymethyl)-2-pyridyl]-2,6-difluoro-phenyl]-4-piperidyl]acetic acid] | > 20000 nM |
| Cc1nc(-c2cc(F)c(N3CCC(CC(=O)O)CC3)c(F)c2)nc(OC2CCC2)c1C [Example 384, 2-[1-[4-[4-(cyclobutoxy)-5,6-dimethyl-pyrimidin-2-yl]-2,6-difluoro-phenyl]-4-piperidyl]acetic acid] | 2000 to 20000 nM |
| CC(CCCC(=O)O)c1c(F)cc(-c2cccc(OC3CCC3)c2)cc1F (stereo not shown) [Example 410, 5-(3′-cyclobutoxy-3,5-difluoro-biphenyl-4-yl)-hexanoic acid] | < 200 nM |
| O=C(O)CCC1CCc2cc(-c3cccc(OC4CCC4)c3)ccc2O1 (stereo not shown) [Example 555, 3-[6-(3-cyclobutoxy-phenyl)-chroman-2-yl]-propionic acid] | < 200 nM |
| O=C(O)CCCOc1c(F)cc(-c2ccnc(OC3CCC3)n2)cc1Cl [Example 423, 4-[2-chloro-4-(2-cyclobutoxy-pyrimidin-4-yl)-6-fluoro-phenoxy]-butyric acid] | < 200 nM |
| CN(CCCC(=O)O)c1c(F)cc(-c2nccc(OC3CCC3)n2)cc1F [Example 485, 4-[4-[4-(cyclobutoxy)pyrimidin-2-yl]-2,6-difluoro-N-methyl-anilino]butanoic acid] | < 200 nM |
| CC(C)(CCCC(=O)O)c1c(F)cc(-c2cccnc2SC2CCC2)cc1F [Example 164, 5-[4-(2-cyclobutylsulfanyl-pyridin-3-yl)-2,6-difluoro-phenyl]-5-methyl-hexanoic acid] | 200 to 2000 nM |
| O=C(O)CC1CCN(c2c(F)cc(-c3nc(OC4CCC4)cc(C(F)(F)F)n3)cc2F)CC1 [Example 617, {1-[4-(4-cyclobutoxy-6-trifluoromethyl-pyrimidin-2-yl)-2,6-difluoro-phenyl]-piperidin-4-yl}-acetic acid] | > 20000 nM |
| O=C(O)CCC1CCc2cc(-c3cncc(OC4CCC4)n3)ccc2S1 (stereo not shown) [Example 507, 3-[6-(6-cyclobutoxy-pyrazin-2-yl)-thiochroman-2-yl]-propionic acid] | 200 to 2000 nM |
| CN(CCCC(=O)O)c1c(F)cc(-n2ncc3ccc(OC4CCC4)cc32)cc1F [Example 492, 4-[4-[6-(cyclobutoxy)indazol-1-yl]-2,6-difluoro-N-methyl-anilino]butanoic acid] | < 200 nM |
| O=C(O)CCCC(F)(F)c1ccc(-c2cccc(OC3CCC3)n2)cc1 [Example 186, 5-[4-(6-cyclobutoxy-pyridin-2-yl)-phenyl]-5,5-difluoro-pentanoic acid] | < 200 nM |
| Cc1cc(OC2CCC2)nc(-c2cc(F)c(N(C)CCCC(=O)O)c(F)c2)n1 [Example 484, 4-[4-[4-(cyclobutoxy)-6-methyl-pyrimidin-2-yl]-2,6-difluoro-N-methyl-anilino]butanoic acid] | < 200 nM |
| Cc1nsc(OC2CCC2)c1-c1cc(F)c(N2CCC(CC(=O)O)CC2)c(F)c1 [Example 366, 2-[1-[4-[5-(cyclobutoxy)-3-methyl-isothiazol-4-yl]-2,6-difluoro-phenyl]-4-piperidyl]acetic acid] | 200 to 2000 nM |
